The results in this text go back to publication PMC9578396, “Intrinsic Antibacterial Activity of Xeruborbactam In Vitro: Assessing Spectrum and Mode of Action” (Antimicrobial Agents and Chemotherapy, 2022).

What all share (assay type): cell-based
Test [1] relates to Klebsiella pneumoniae. The test is described as follows: microbe, parasite or virus in culture. The note with it: for MIC90: read-out: MIC90. The text has this: (§1) (i) Panels of engineered bacterial strains containing various combinations of porin and efflux mutations were used. The construction of all the strains used in the study is described in detail in references, [44], and [45]. (ii) KPC-producing clinical isolates and their derivatives that lost KPC plasmids were used also. These strains and their origins are described in the Table S2. (iii) Finally, KPC-producing clinical isolates enriched in strains with porin mutations were used. The mutations identified include various deletions, insertions, nonsense mutations, and decreased expression. Most of the isolates were obtained from JMI Laboratories or International Health Management Associates (IHMA); they were collected in the course of global surveillance studies.
(§2) Bacterial isolates were subjected to broth microdilution susceptibility testing, performed according to Clinical and Laboratory Standards Institute (CLSI) methods ([46]), using panels prepared in-house. […] Xeruborbactam was synthesized at Qpex Biopharma, San Diego, CA. Avibactam was purchased from eNovation Chemicals LLC, Bridgewater, NJ, USA; zidebactam was from MedKoo Biosciences, Inc., Morrisville, NC, and nacubactam was from Advanced ChemBlocks, Hayward, CA. Durlobactam was synthesized at Acme Bioscience, Palo Alto, CA, USA.

In test [2] the test system is Acinetobacter baumannii. Briefly: Broth microdilution MIC (CLSI), Acinetobacter baumannii. The note with it: Acinetobacter baumannii.
Source text: as §1, §2
A general note: Broth dilution looks for growth in wells or tubes with falling amounts of substance.

Test [3] relates to Escherichia coli. The test is described as follows: Broth microdilution MIC (CLSI), Escherichia coli. The note with it: Escherichia coli.
Source text: as §1, §2

Test [4] relates to Pseudomonas aeruginosa. Briefly: Broth microdilution MIC (CLSI), Pseudomonas aeruginosa.
Source text: as §1, §2

The mark [5] stands for this setting: PAM1154 (oprM::Hg), xeruborbactam 0 µg/ml.
[6] abbreviates: AB1007 (no beta-lactamase), xeruborbactam 0 µg/ml, read-out: MIC.
The mark [7] stands for this setting: AB1007, xeruborbactam 2 µg/ml, read-out: MIC.
[8] abbreviates: AB1007, xeruborbactam 4 µg/ml, read-out: MIC.
Setting [9] is: AB1007, xeruborbactam 8 µg/ml, read-out: MIC.
Setting [10] is: Klebsiella pneumoniae, KPC-producing clinical strains with functional OmpK36, alone.
Where [11] appears, read: Klebsiella pneumoniae, KPC-producing clinical strains with nonfunctional OmpK36, alone.
Where [12] appears, read: Klebsiella pneumoniae, KPC-producing clinical strains, all strains (n = 141), alone.

Several values for one entry are separate records, joined by “and”; a condition that tells them apart may be missing. Equal entries are not always repeated. Where two headings read alike, the source gives them in different places. Bounds are passed on as bounds.

Consider `NC(=O)[C@@H]1CC[C@@H]2CN1C(=O)N2OS(=O)(=O)O` [Avibactam], for which the MIC in test [1] (Klebsiella pneumoniae, KPM1026a, parent, read-out: MIC) is 16 µg/mL; in test [1] (Klebsiella pneumoniae, KPM3532, TolQ::M189K), over 64 µg/mL; in test [1] (Klebsiella pneumoniae, KPM3534, TolQ::S31F) it was over 64 µg/mL; in test [1] (Klebsiella pneumoniae, KPM4235, TolQ::IP(183–1844)PR), over 64 µg/mL; in test [1] (Klebsiella pneumoniae, KPM4236, TolQ::TAA at aa 103) it was over 64 µg/mL; in test [1] (Klebsiella pneumoniae, KPM4238, TolQ::S25F), over 64 µg/mL. For the same molecule, the MIC in test [1] (Klebsiella pneumoniae, KPM4239, TolQ::S28F) is over 64 µg/mL; in test [1] (Klebsiella pneumoniae, KPM4240, TolQ::S25Y), over 64 µg/mL; in test [1] (Klebsiella pneumoniae, strain KPM1026a, wild type, read-out: MIC) it was 16 µg/mL; in test [1] (Klebsiella pneumoniae, strain KPM1027, ramR, read-out: MIC), 16 µg/mL; in test [1] (Klebsiella pneumoniae, strain KPM1171, ramR ompK36_1171, read-out: MIC), over 256 µg/mL; in test [1] (Klebsiella pneumoniae, strain KPM2040, ompK36_2040, read-out: MIC), 256 µg/mL. Further, the MIC is 16 µg/mL in test [1] (Klebsiella pneumoniae, strain KPM2600, ΔompK35); 256 µg/mL in test [1] (Klebsiella pneumoniae, strain KPM2613, ΔompK35 ompK36_2040); 16 µg/mL in test [1] (Klebsiella pneumoniae, strain KPM2696, ΔacrB); over 256 µg/mL in test [2] (strain AB1007, wild type, read-out: MIC); over 256 µg/mL in test [2] (strain ACM1013, ΔadeIJK); over 256 µg/mL in test [2] (strain ACM1014, ΔadeABC). For the same molecule, the MIC is over 256 µg/mL in test [2] (strain ACM1015, ΔadeIJK ΔadeABC); over 256 µg/mL in test [2] (strain ACM1027, adeN (AdeIJK overexpression)); over 256 µg/mL in test [2] (strain ACM1030, adeS (AdeABC overexpression)); 16 µg/mL in test [3] (strain ECM5497, wild type, read-out: MIC); 16 µg/mL in test [3] (strain ECM6001, ΔacrB); 8 µg/mL in test [3] (strain ECM6502, marR (AcrAB overexpression)). The MIC in test [4] (Pseudomonas aeruginosa, after inactivation of MexAB-OprM, read-out: MIC) is 128 µg/mL; in test [4] (Pseudomonas aeruginosa, before inactivation of MexAB-OprM (wild type), read-out: MIC), over 256 µg/mL; in test [4] (Pseudomonas aeruginosa, strain PAM1020, wild type, read-out: MIC), over 256 µg/mL; in test [4] (Pseudomonas aeruginosa, strain PAM1032, nalB (MexAB-OprM overexpression)), over 256 µg/mL; in test [4] (Pseudomonas aeruginosa, strain PAM1033, nfxB (MexCD-OprJ overexpression)), 32 µg/mL; in test [4] (Pseudomonas aeruginosa, strain PAM1034, nfxC (MexEF-OprN overexpression)), over 256 µg/mL. The MIC worked out at 128 µg/mL in test [4] (Pseudomonas aeruginosa, strain PAM1106, mexA::Tet) and 128 µg/mL in test [4] (Pseudomonas aeruginosa, strain PAM1154, oprM::Hg).
With `CC(C)(O/N=C(\C(=O)N[C@@H]1C(=O)N2C(C(=O)[O-])=C(C[n+]3ccccc3)CS[C@H]12)c1csc(N)n1)C(=O)O` [Ceftazidime], the MIC in test [1] (Klebsiella pneumoniae, BAA2814) was 512 µg/mL; in test [4] (setting [5]), 1 µg/mL; in test [4] (PAM1154, xeruborbactam 2 µg/ml), 0.25 µg/mL; in test [4] (PAM1154, xeruborbactam 4 µg/ml) it was 0.25 µg/mL; in test [4] (PAM1154, xeruborbactam 8 µg/ml), 0.25 µg/mL.
On to `Nc1nc(/C(=C/CC(=O)O)C(=O)N[C@@H]2C(=O)N3C(C(=O)O)=CCS[C@H]23)cs1` [Ceftibuten], for which the “fold decrease compared to MIC of antibiotic alone” value in test [1] is 0.015 (4) fold and 0.008 (8) fold; in test [1] (KPM3532 (TolQ::M189K), with xeruborbactam at 4 μg/mL), 2 fold; in test [1] (KPM3532 (TolQ::M189K), with xeruborbactam at 8 μg/mL) it was 2 fold; in test [1] (KPM3534 (TolQ::S31F), with xeruborbactam at 4 μg/mL), 2 fold; in test [1] (KPM3534 (TolQ::S31F), with xeruborbactam at 8 μg/mL) it was 4 fold. Also, the MIC was found to be 0.06 µg/mL in test [1] (Klebsiella pneumoniae); 0.125 µg/mL in test [1] (Klebsiella pneumoniae, KPM3532 (TolQ::M189K), alone); 0.125 µg/mL in test [1] (Klebsiella pneumoniae, KPM3534 (TolQ::S31F), alone).
With `C[C@@H](O)[C@H]1C(=O)N2C(C(=O)O)=C(SCCN=CN)C[C@H]12` [Imipenem], the MIC in test [2] (setting [6]) was determined as 0.125 µg/mL; in test [2] (setting [7]), 0.125 µg/mL; in test [2] (setting [8]) it was 0.03 µg/mL; in test [2] (setting [9]) it was 0.015 µg/mL; in test [4] (setting [5]), 1 µg/mL; in test [4] (PAM1154, xeruborbactam 2 µg/ml) it was 0.5 µg/mL. Besides, the MIC in test [4] (PAM1154, xeruborbactam 4 µg/ml) was 0.25 µg/mL; in test [4] (PAM1154, xeruborbactam 8 µg/ml) it was 0.125 µg/mL.
Consider `CCN1CCN(C(=O)N[C@@H](C(=O)N[C@@H]2C(=O)N3[C@@H]2SC(C)(C)[C@@H]3C(=O)O)c2ccccc2)C(=O)C1=O` [Piperacillin], for which the MIC in test [4] (setting [5]) was 0.5 µg/mL; in test [4] (PAM1154, xeruborbactam 2 µg/ml), 0.125 µg/mL; in test [4] (PAM1154, xeruborbactam 4 µg/ml) it was 0.125 µg/mL; in test [4] (PAM1154, xeruborbactam 8 µg/ml) it was 0.06 µg/mL.
With `CC1(C)[C@H](C(=O)O)N2C(=O)C[C@H]2S1(=O)=O` [Sulbactam], the MIC amounted to 2 µg/mL in test [2] (setting [6]), 2 µg/mL in test [2] (setting [7]), 2 µg/mL in test [2] (setting [8]) and 0.25 µg/mL in test [2] (setting [9]).
Regarding `C[C@@H](O)[C@H]1C(=O)N2C(C(=O)O)=C(SC3CN(C4=NCCS4)C3)[C@H](C)[C@H]12` [Tebipenem], the MIC worked out at 0.03 µg/mL in test [1] (KPM1026a (no beta-lactamase), xeruborbactam 0 µg/ml); 0.03 µg/mL in test [1] (KPM1026a, xeruborbactam 2 µg/ml); 0.016 µg/mL in test [1] (KPM1026a, xeruborbactam 4 µg/ml); 0.004 µg/mL in test [1] (KPM1026a, xeruborbactam 8 µg/ml).
Consider `O=C(O)C[C@@H]1CC[C@H](NC(=O)Cc2cccs2)B(O)O1` [Vaborbactam], for which, in test [1] (KPM1026a, vaborbactam up to 64 μg/mL, data not shown), the “effect on beta-lactam MIC” value is “no reduction”. Also, the MIC50 in test [1] (setting [10]), in test [1] (setting [11]) and in test [1] (setting [12]) was over 64 µg/mL each time. Moreover, the MIC90 in test [1] (setting [10]), in test [1] (setting [11]) and in test [1] (setting [12]) was over 64 µg/mL each time. For the same molecule, the MIC was over 128 µg/mL in test [1] (Klebsiella pneumoniae, KPM1271 (KPC-3; wild type), alone, read-out: MIC); over 128 µg/mL in test [1] (Klebsiella pneumoniae, KPM1272 (KPC-3; ramR_fs), alone, read-out: MIC); over 128 µg/mL in test [1] (Klebsiella pneumoniae, KPM1273 (KPC-3; ramR_fs ompK36_1171), alone, read-out: MIC); over 128 µg/mL in test [1] (Klebsiella pneumoniae, KPM2067 (KPC-3; ompK36_fs), alone, read-out: MIC); over 128 µg/mL in test [1] (Klebsiella pneumoniae, KPM2601 (KPC-3; ΔompK35), alone); over 128 µg/mL in test [1] (Klebsiella pneumoniae, KPM2631 (KPC-3; ompK36_fs ΔompK35), alone).
Consider `Cn1c(N)c(NC(=O)NCCN)c[n+]1CC1=C(C(=O)O)N2C(=O)[C@@H](NC(=O)/C(=N\OC(C)(C)C(=O)[O-])c3nsc(N)n3)[C@H]2SC1` [ceftolozane], for which the MIC came out at 0.5 µg/mL in test [4] (setting [5]); 0.25 µg/mL in test [4] (PAM1154, xeruborbactam 2 µg/ml); 0.25 µg/mL in test [4] (PAM1154, xeruborbactam 4 µg/ml); 0.125 µg/mL in test [4] (PAM1154, xeruborbactam 8 µg/ml).
Take `CC1=C(C(=O)O)N2C(=O)[C@@H](NC(=O)[C@H](N)c3ccccc3)[C@H]2SC1` [cephalexin]: the MIC in test [1] (Klebsiella pneumoniae) was 128 µg/mL.
